Drawing on PubChem BioAssay (NCI), this text covers GI50 and TGI for 22 molecules.

Each structure is given as a SMILES string. “And” between values parts separate entries of the source, which are not always exact repeats. Equal values may be shown once.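 Cultured in 96-well plates, cells were exposed to test compound for 48 hours across five concentrations. At the GI50, growth is halved. TGI marks complete inhibition of growth.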

For one assay, the system named is HL-60(TB) leukemia. In words: NCI tumour cell line growth inhibition, 48 h.
Regarding `CC(=Nc1ccc(S(N)(=O)=O)cc1)c1c(O)[nH]c2ccccc12`, the GI50 was > 25 µM and the TGI was > 25 µM.
`COc1cc(CNc2nc3ccc(C(F)(F)F)cc3nc2-c2ccccc2)cc(OC)c1OC` yielded a TGI of 55.9 µM.
Turning to `CC1=NN(C(=O)c2ccncc2)C(=O)C1N=Nc1ccc(F)cc1` (stereo not drawn), the TGI was > 100 µM.
The same measure, in the same setting: for `O=S1CSSC1` the value was 61.5 µM.
On the same count and under the same terms, for `C=CCNC(=O)N(CCC)CCCC(NC(C)=O)C(=O)NCc1ccccc1` (stereo not drawn) the value was > 100 µM; for `CN1c2ccccc2SC2C(c3ccccc3)=NOC21` (stereo not drawn), > 100 µM; for `COc1c(O)c(OC)c2oc(-c3ccc(O)cc3)c(OC)c(=O)c2c1O`, > 100 µM.
Still for that read-out and setting: for `COC(=O)C1C(=O)N(CCc2c[nH]c3ccccc23)C[C@@H]2CCC(=O)C[C@H]12` (stereo partly drawn) the value was > 100 µM; for `C[C@]12C/C(=C/O)C(=O)C(O)=C1CC[C@@H]1C2CC[C@@]2(C)C1CC[C@@H]2O` (stereo partly drawn), 41.8 µM.
`O=C1c2ccccc2-c2c1c1c(NCCCO)nc3ccccc3c1n2Cc1ccccc1`: the GI50 was 12 µM and the TGI turned out to be 25.7 µM.
The corresponding values for `O=C(NCCN1CCNCC1)c1ccc(Nc2nc3ccccc3c3occc23)cc1` are 17.6 µM and 33.5 µM.

In the next assay the test system is COLO 205 colon. Briefly: NCI tumour cell line growth inhibition, 48 h.
In turn, `Cc1c2ccncc2c(C)c2c1[nH]c1ccc(O)c(OCC(F)(F)F)c12` returned a TGI of 22.3 µM.
On the same count and under the same terms, for `O=C1[C@H]2ON(c3ccccc3)C(c3ccco3)[C@H]2C(=O)N1c1ccc(Cc2ccc(N3C(=O)[C@@H]4ON(c5ccccc5)C(c5ccco5)[C@@H]4C3=O)cc2)cc1` (stereo partly drawn) the value was > 100 µM.
Take `O=C(Cl)C1=C(c2ccccc2)C1c1ccccc1` (stereo not drawn): the TGI is > 100 µM.
The same measure, in the same setting: for `Cc1cccc(C)c1N1C(=O)C(=O)C(c2nc3ccccc3s2)/C(=N/NC(=O)NN)C1=O` (stereo not drawn) the value was > 100 µM.
For `c1cnn2ncc(-c3ccnc(Nc4ccc5c(c4)OCCO5)n3)c2c1`, the GI50 was 0.0473 µM and the TGI came out at 0.107 µM.
For `Cc1ccc(-n2nc(C(C)(C)C)cc2NC(=O)NCc2cc(F)ccc2Oc2ccc3c(cnn3CCO)c2)cc1`, the GI50 was 0.795 µM and 1.86 µM; the TGI is > 10 µM and 10.9 µM.
For the molecule `COc1ccc2[nH]c(-c3ccc(O)cc3)cc(=O)c2c1`, the TGI was 6.25 µM.
The same measure, in the same setting: for `Cc1cc(C)n(C2=NS(=O)(=O)c3ccccc3N2C)n1` the value was > 100 µM.
As for `COc1cccc2c(=O)c3c(sc12)c(NCCCNCCO)nc1ccccc13`, the GI50 is 1.45 µM and the TGI is 3.09 µM.
For `O=C1c2cccc3cccc(c23)C(=O)N1O`, the TGI was > 100 µM.
Turning to `COc1ccc(Nc2nccc(N3CCN(c4c5ccc(Cl)cc5nc5ccc(OC)cc45)CC3)n2)cc1`, the GI50 was 16.9 µM and the TGI was > 100 µM.
The corresponding values for `CC(=Nc1ccc(S(N)(=O)=O)cc1)c1c(O)[nH]c2ccccc12` are > 16 µM and > 25 µM.
Turning to `COc1cc(CNc2nc3ccc(C(F)(F)F)cc3nc2-c2ccccc2)cc(OC)c1OC`, the TGI was > 100 µM.
On to `CC1=NN(C(=O)c2ccncc2)C(=O)C1N=Nc1ccc(F)cc1` (stereo not drawn), for which the TGI is > 100 µM.
The same measure, in the same setting: for `O=S1CSSC1` the value was 32 µM; for `C=CCNC(=O)N(CCC)CCCC(NC(C)=O)C(=O)NCc1ccccc1` (stereo not drawn), > 100 µM; for `CN1c2ccccc2SC2C(c3ccccc3)=NOC21` (stereo not drawn), > 100 µM.
Still for that read-out and setting: for `COc1c(O)c(OC)c2oc(-c3ccc(O)cc3)c(OC)c(=O)c2c1O` the value was > 100 µM; for `COC(=O)C1C(=O)N(CCc2c[nH]c3ccccc23)C[C@@H]2CCC(=O)C[C@H]12` (stereo partly drawn), > 100 µM.
Same read-out and setting: for `C[C@]12C/C(=C/O)C(=O)C(O)=C1CC[C@@H]1C2CC[C@@]2(C)C1CC[C@@H]2O` (stereo partly drawn) the value was 44.5 µM.
For the molecule `O=C1c2ccccc2-c2c1c1c(NCCCO)nc3ccccc3c1n2Cc1ccccc1`, the GI50 is 34.2 µM and the TGI was > 100 µM.
For `O=C(NCCN1CCNCC1)c1ccc(Nc2nc3ccccc3c3occc23)cc1`, the GI50 was 10.6 µM and the TGI was > 100 µM.

Another assay concerns NCI-H226 lung. In words: NCI tumour cell line growth inhibition, 48 h.
As for `Cc1c2ccncc2c(C)c2c1[nH]c1ccc(O)c(OCC(F)(F)F)c12`, the TGI is 20.1 µM.
The same measure, in the same setting: for `O=C1[C@H]2ON(c3ccccc3)C(c3ccco3)[C@H]2C(=O)N1c1ccc(Cc2ccc(N3C(=O)[C@@H]4ON(c5ccccc5)C(c5ccco5)[C@@H]4C3=O)cc2)cc1` (stereo partly drawn) the value was > 100 µM; for `O=C(Cl)C1=C(c2ccccc2)C1c1ccccc1` (stereo not drawn), > 100 µM.
Same read-out and setting: for `Cc1cccc(C)c1N1C(=O)C(=O)C(c2nc3ccccc3s2)/C(=N/NC(=O)NN)C1=O` (stereo not drawn) the value was > 100 µM.
As for `Cc1ccc(-n2nc(C(C)(C)C)cc2NC(=O)NCc2cc(F)ccc2Oc2ccc3c(cnn3CCO)c2)cc1`, the GI50 was 0.562 µM and 2.75 µM; the TGI was > 100 µM.
`COc1ccc2[nH]c(-c3ccc(O)cc3)cc(=O)c2c1` came in with a TGI of 4.81 µM.
Still for that read-out and setting: for `Cc1cc(C)n(C2=NS(=O)(=O)c3ccccc3N2C)n1` the value was > 100 µM.
Take `COc1cccc2c(=O)c3c(sc12)c(NCCCNCCO)nc1ccccc13`: the GI50 is 1.6 µM and the TGI came to 3.46 µM.
The corresponding values for `COc1ccc(Nc2nccc(N3CCN(c4c5ccc(Cl)cc5nc5ccc(OC)cc45)CC3)n2)cc1` are 29.7 µM and > 100 µM.
The corresponding values for `CC(=Nc1ccc(S(N)(=O)=O)cc1)c1c(O)[nH]c2ccccc12` are > 23.6 µM and > 25 µM.
On to `CC1=NN(C(=O)c2ccncc2)C(=O)C1N=Nc1ccc(F)cc1` (stereo not drawn), for which the TGI is > 100 µM.
On the same count and under the same terms, for `O=S1CSSC1` the value was 71.7 µM; for `C=CCNC(=O)N(CCC)CCCC(NC(C)=O)C(=O)NCc1ccccc1` (stereo not drawn), > 100 µM.
Consider `CN1c2ccccc2SC2C(c3ccccc3)=NOC21` (stereo not drawn), for which the TGI is > 100 µM.
Still for that read-out and setting: for `COc1c(O)c(OC)c2oc(-c3ccc(O)cc3)c(OC)c(=O)c2c1O` the value was > 100 µM; for `C[C@]12C/C(=C/O)C(=O)C(O)=C1CC[C@@H]1C2CC[C@@]2(C)C1CC[C@@H]2O` (stereo partly drawn), 36.8 µM.
On to `O=C1c2ccccc2-c2c1c1c(NCCCO)nc3ccccc3c1n2Cc1ccccc1`, for which the GI50 was 41.3 µM and the TGI is > 100 µM.

The subject of another assay is HCT-15 colon. Briefly: NCI tumour cell line growth inhibition, 48 h.
Turning to `O=C1[C@H]2ON(c3ccccc3)C(c3ccco3)[C@H]2C(=O)N1c1ccc(Cc2ccc(N3C(=O)[C@@H]4ON(c5ccccc5)C(c5ccco5)[C@@H]4C3=O)cc2)cc1` (stereo partly drawn), the TGI is > 100 µM.
Still for that read-out and setting: for `O=C(Cl)C1=C(c2ccccc2)C1c1ccccc1` (stereo not drawn) the value was > 100 µM.
The same measure, in the same setting: for `Cc1cccc(C)c1N1C(=O)C(=O)C(c2nc3ccccc3s2)/C(=N/NC(=O)NN)C1=O` (stereo not drawn) the value was > 100 µM.
